Source: patent publication US8846730B2, “Compounds as cannabinoid receptor ligands” (priority 2008, dated 2014)
pEC50, pKi: −log10 of the molar value. Read-outs that look alike come from different tables or passages of the source.

Columns and labels:
human CB2 receptors = human CB2 receptors (Homo sapiens (Human), UniProt P34972); experiment: human CB2 radioligand binding assay ([3H]CP 55,940 competition)
Procedure: (§1) The CB1 and CB2 radioligand binding assays described herein are utilized to ascertain the affinity of compounds of the present application for binding to CB2 relative to CB1 receptors.
HEK293 cells stably expressing human CB2 receptors were grown until a confluent monolayer was formed. Briefly, the cells were harvested and homogenized in TE buffer (50 mM Tris-HCl, 1 mM MgCl2, and 1 mM EDTA) using a polytron for 2×10 second bursts in the presence of protease inhibitors, followed by centrifugation at 45,000×g for 20 minutes. The final membrane pellet was re-homogenized in storage buffer (50 mM Tris-HCl, 1 mM MgCl2, and 1 mM EDTA and 10% sucrose) and frozen at −78° C. until used. Saturation binding reactions were initiated by the addition of membrane preparation (protein concentration of 5 μg/well for human CB2) into wells of a deep well plate containing [^3H]CP 55,940 (120 Ci/mmol, a nonselective CB agonist commercially available from Tocris) in assay buffer (50 mM Tris, 2.5 mM EDTA, 5 mM MgCl2, and 0.5 mg/mL fatty acid free BSA, pH 7.4). After 90 min incubation at 30° C., binding reaction was terminated by the addition of 300 μL/well of cold assay buffer followed by rapid vacuum filtration through a UniFilter-96 GF/C filter plates (pre-soaked in 1 mg/mL BSA for 2 hours). The bound activity was counted in a TopCount using Microscint-20. Saturation experiments were conducted with twelve concentrations of [^3H]CP 55,940 ranging from 0.01 to 8 nM. Competition experiments were conducted with 0.5 nM [^3H]CP 55,940 and five concentrations (0.01 nM to 10 μM) of displacing ligands. The addition of 10 μM unlabeled CP 55,940 (Tocris, Ellisville, Mo.) was used to assess nonspecific binding.

rat CB2 receptors = rat CB2 receptors (Rattus norvegicus (Rat), UniProt Q9QZN9); experiment: rat CB2 radioligand binding assay ([3H]CP 55,940 competition); details: HEK293 membranes, 0.5 nM [3H]CP 55,940
Procedure: as §1
HEK293 cells stably expressing rat CB2 receptors were grown until a confluent monolayer was formed. Briefly, the cells were harvested and homogenized in TE buffer (50 mM Tris-HCl, 1 mM MgCl2, and 1 mM EDTA) using a polytron for 2×10 second bursts in the presence of protease inhibitors, followed by centrifugation at 45,000×g for 20 minutes. The final membrane pellet was re-homogenized in storage buffer (50 mM Tris-HCl, 1 mM MgCl2, and 1 mM EDTA and 10% sucrose) and frozen at −78° C. until used. Saturation binding reactions were initiated by the addition of membrane preparation (protein concentration of 20 μg/well for rat CB2) into wells of a deep well plate containing [^3H]CP 55,940 (120 Ci/mmol, a nonselective CB agonist commercially available from Tocris) in assay buffer (50 mM Tris, 2.5 mM EDTA, 5 mM MgCl2, and 0.5 mg/mL fatty acid free BSA, pH 7.4). After 45 min incubation at 30° C., binding reaction was terminated by the addition of 300 μl/well of cold assay buffer followed by rapid vacuum filtration through a UniFilter-96 GF/C filter plates (pre-soaked in 1 mg/mL BSA for 2 hours). The bound activity was counted in a TopCount using Microscint-20. Saturation experiments were conducted with twelve concentrations of [^3H]CP 55,940 ranging from 0.01 to 8 nM. Competition experiments were conducted with 0.5 nM [^3H]CP 55,940 and five concentrations of displacing ligands selected from the range of 0.01 nM to 10 μM. The addition of 10 μM unlabeled CP 55,940 (Tocris, Ellisville, Mo.) was used to assess nonspecific binding.

[1] = target: rat CB2 receptors (HEK cells) (Rattus norvegicus (Rat), UniProt Q9QZN9); experiment: rat CB2 cyclase functional assay (HitHunter cAMP); type: cell-based
Procedure: (§2) The cyclase functional assays were performed using the HitHunter™ cAMP assay kit from DiscoveRx (Fremont, Calif.) according to vendor's protocol. Briefly, HEK cells expressing CB2 or CB1 receptors (rat or human) were detached using cell dissociation buffer (Invitrogen, Carlsbad, Calif.), dispersed and placed in suspension at 10,000 cells per well in 96 well plates prior to the assay. Cell suspensions were incubated at 37° C. for 20 min with variable concentrations of test ligands and or 10 μM CP 55,940-positive control in the presence of a fixed concentration of forskolin (18 μM for rat CB2 and 37 μM for rat CB1) in Dulbescco's phosphate-buffered saline (Invitrogen, Carlsbad, Calif.) supplemented with bovine serum albumin (0.01% final concentration). The reactions were terminated by the addition of lysis buffer and the luminescence was detected following the procedure according to the manufacturer's instructions. EC50 values were calculated using sigmoidal dose-response curve fitting from Prism (GraphPad).

[2] = target: rat CB1 receptors (HEK cells) (Rattus norvegicus (Rat), UniProt P20272); experiment: rat CB1 cyclase functional assay (HitHunter cAMP); type: cell-based
Procedure: as §2

[3] = HEK293 membranes, 0.5 nM [3H]CP 55,940, read-out: human CB2 (Ki)
[4] = HEK cells, forskolin 18 μM, read-out: rat CB2 cyclase (EC50)

rat CB1 receptors (HEK cells), sequence (P20272 whole entry): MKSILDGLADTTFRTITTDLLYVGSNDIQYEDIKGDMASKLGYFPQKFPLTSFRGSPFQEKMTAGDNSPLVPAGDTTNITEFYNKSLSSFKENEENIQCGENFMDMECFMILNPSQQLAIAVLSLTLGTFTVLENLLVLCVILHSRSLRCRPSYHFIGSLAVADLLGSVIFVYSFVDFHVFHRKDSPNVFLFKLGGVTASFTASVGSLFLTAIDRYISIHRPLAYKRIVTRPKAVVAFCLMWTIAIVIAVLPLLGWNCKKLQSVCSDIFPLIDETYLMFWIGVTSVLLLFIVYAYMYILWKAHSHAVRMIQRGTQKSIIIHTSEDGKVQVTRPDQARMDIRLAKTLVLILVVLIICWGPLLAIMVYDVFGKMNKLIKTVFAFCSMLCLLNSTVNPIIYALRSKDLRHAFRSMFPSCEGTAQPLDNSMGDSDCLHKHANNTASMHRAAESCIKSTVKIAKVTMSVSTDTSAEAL
human CB2 receptors, sequence (P34972 whole entry): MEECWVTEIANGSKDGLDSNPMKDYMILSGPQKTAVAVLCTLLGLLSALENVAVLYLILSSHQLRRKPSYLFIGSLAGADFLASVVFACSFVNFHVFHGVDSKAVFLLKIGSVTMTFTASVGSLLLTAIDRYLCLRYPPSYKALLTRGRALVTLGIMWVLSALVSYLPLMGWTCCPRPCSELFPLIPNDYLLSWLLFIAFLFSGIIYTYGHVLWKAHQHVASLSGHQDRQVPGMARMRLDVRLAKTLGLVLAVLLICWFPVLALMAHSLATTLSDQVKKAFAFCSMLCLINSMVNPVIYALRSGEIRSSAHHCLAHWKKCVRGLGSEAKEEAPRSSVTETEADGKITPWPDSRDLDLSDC

Row | SMILES | pKi (human CB2 receptors; [3]) | pKi (rat CB2 receptors) | pEC50 [1, 4] | pEC50 [2] | pEC50 [1] | pKi (human CB2 receptors)
1 | CC(C)(C)c1cn(C[C@H]2CCCO2)/c(=N/C(=O)c2cc(C(F)(F)F)ccc2OCc2cnccn2)s1 [Example 19, N-[(2Z)-5-tert-butyl-3-[(2R)-tetrahydrofuran-2-ylmethyl]-1,3-thiazol-2(3H)-ylidene]-2-(pyrazin-2-ylmethoxy)-5-(trifluoromethyl)benzamide] | 8.30 | 8.30 | 9.39 | 5.47 | – | –
2 | CC(C)N1CCC[C@H]1COc1ccc(C(F)(F)F)cc1C(=O)/N=c1\sc(C(C)(C)C)cn1C[C@H]1CCCO1 [Example 46, N-[(2Z)-5-tert-butyl-3-[(2R)-tetrahydrofuran-2-ylmethyl]-1,3-thiazol-2(3H)-ylidene]-2-{[(2S)-1-isopropylpyrrolidin-2-yl]methoxy}-5-(trifluoromethyl)benzamide] | 6.99 | 7.68 | 8.14 | 5.27 | – | –
3 | CN1CCC[C@H]1COc1ccc(C(F)(F)F)cc1C(=S)/N=c1\sc(C(C)(C)C)cn1C[C@H]1CCCO1 [Example 51, N-[(2Z)-5-tert-butyl-3-[(2R)-tetrahydrofuran-2-ylmethyl]-1,3-thiazol-2(3H)-ylidene]-2-{[(2S)-1-methylpyrrolidin-2-yl]methoxy}-5-(trifluoromethyl)benzenecarbothioamide] | 8.89 | 9.05 | 9.47 | 5.88 | – | –
4 | CC(C)(C)c1cn(C[C@H]2CCCO2)/c(=N/C(=O)c2cc(C(F)(F)F)ccc2OC[C@@H]2CCCO2)s1 [Example 23, N-[(2Z)-5-tert-butyl-3-[(2R)-tetrahydrofuran-2-ylmethyl]-1,3-thiazol-2(3H)-ylidene]-2-[(2S)-tetrahydrofuran-2-ylmethoxy]-5-(trifluoromethyl)benzamide] | 9.30 | 9.52 | – | 6.03 | 9.85 | –
5 | CC(C)(C)c1cn(C[C@H]2CCCO2)/c(=N/C(=O)c2cc(C(F)(F)F)ccc2OC[C@@H]2CCN2)s1 [Example 2, 2-[(2S)-azetidin-2-ylmethoxy]-N-[(2Z)-5-tert-butyl-3-[(2R)-tetrahydrofuran-2-ylmethyl]-1,3-thiazol-2(3H)-ylidene]-5-(trifluoromethyl)benzamide] | 7.82 | 8.52 | 9.19 | 5.49 | – | –
6 | CC(COc1ccc(C(F)(F)F)cc1C(=O)/N=c1\sc(C(C)(C)C)cn1C[C@H]1CCCO1)=NOC1CCCCO1 (stereo partly drawn) [Example 63, N-[(2Z)-5-tert-butyl-3-[(2R)-tetrahydrofuran-2-ylmethyl]-1,3-thiazol-2(3H)-ylidene]-2-({2-[(tetrahydro-2H-pyran-2-yloxy)imino]propyl}oxy)-5-(trifluoromethyl)benzamide] | – | 8.18 | 8.67 | < 4.57 | – | 7.60
7 | CN1CC[C@H]1COc1ccc(C(F)(F)F)cc1C(=O)/N=c1\sc(C(C)(C)C)cn1C[C@H]1CCCO1 [Example 3, N-[(2Z)-5-tert-butyl-3-[(2R)-tetrahydrofuran-2-ylmethyl]-1,3-thiazol-2(3H)-ylidene]-2-{[(2S)-1-methylazetidin-2-yl]methoxy}-5-(trifluoromethyl)benzamide] | 8.13 | 8.35 | 10.05 | 5.99 | – | –
8 | CC(C)(C)c1cn(C[C@H]2CCCO2)/c(=N/C(=O)c2cc(C(F)(F)F)ccc2OCCNCCO)s1 [Example 58, N-[(2Z)-5-tert-butyl-3-[(2R)-tetrahydrofuran-2-ylmethyl]-1,3-thiazol-2(3H)-ylidene]-2-{2-[(2-hydroxyethyl)amino]ethoxy}-5-(trifluoromethyl)benzamide] | 7.47 | 8.00 | – | 5.59 | 9.74 | –
9 | CN1CC[C@@H]1COc1ccc(C(F)(F)F)cc1C(=O)/N=c1\sc(C(C)(C)C)cn1C[C@H]1CCCO1 [Example 8, N-[(2Z)-5-tert-butyl-3-[(2R)-tetrahydrofuran-2-ylmethyl]-1,3-thiazol-2(3H)-ylidene]-2-{[(2R)-1-methylazetidin-2-yl]methoxy}-5-(trifluoromethyl)benzamide] | 7.33 | 7.77 | 9.46 | 5.43 | – | –
10 | CC(C)(C)c1cn(C[C@@H]2CCCO2)/c(=N/C(=O)c2cc(C(F)(F)F)ccc2OC[C@H](N)CO)s1 [Example 33, 2-{[(2R)-2-amino-3-hydroxypropyl]oxy}-N-[(2Z)-5-tert-butyl-3-[(2S)-tetrahydrofuran-2-ylmethyl]-1,3-thiazol-2(3H)-ylidene]-5-(trifluoromethyl)benzamide] | 8.13 | 8.55 | 9.74 | 5.93 | – | –
11 | CN1CCC(COc2ccc(C(F)(F)F)cc2C(=O)/N=c2\sc(C(C)(C)C)cn2C[C@H]2CCCO2)CC1 [Example 15, N-[(2Z)-5-tert-butyl-3-[(2R)-tetrahydrofuran-2-ylmethyl]-1,3-thiazol-2(3H)-ylidene]-2-[(1-methylpiperidin-4-yl)methoxy]-5-(trifluoromethyl)benzamide] | 6.00 | 7.08 | 8.20 | 4.89 | – | –
12 | CN1C(=O)CC[C@H]1COc1ccc(C(F)(F)F)cc1C(=O)/N=c1\sc(C(C)(C)C)cn1C[C@H]1CCCO1 [Example 43, N-[(2Z)-5-tert-butyl-3-[(2R)-tetrahydrofuran-2-ylmethyl]-1,3-thiazol-2(3H)-ylidene]-2-{[(2S)-1-methyl-5-oxopyrrolidin-2-yl]methoxy}-5-(trifluoromethyl)benzamide] | 7.21 | 8.48 | 8.68 | 5.18 | – | –
13 | CN1CCC[C@H]1COc1ccc(C(F)(F)F)cc1C(=O)/N=c1\sc(C(C)(C)C)cn1C[C@H]1CCCO1 [Example 24, N-[(2Z)-5-tert-butyl-3-[(2R)-tetrahydrofuran-2-ylmethyl]-1,3-thiazol-2(3H)-ylidene]-2-{[(2S)-1-methylpyrrolidin-2-yl]methoxy}-5-(trifluoromethyl)benzamide] | 8.34 | 8.47 | 10.05 | 5.70 | – | –
14 | CC(C)(C)c1cn(C[C@H]2CCCO2)/c(=N/C(=O)c2cc(C(F)(F)F)ccc2OCc2ccn[nH]2)s1 [Example 56, N-[(2Z)-5-tert-butyl-3-[(2R)-tetrahydrofuran-2-ylmethyl]-1,3-thiazol-2(3H)-ylidene]-2-(1H-pyrazol-5-ylmethoxy)-5-(trifluoromethyl)benzamide] | 7.96 | 8.29 | 9.12 | 5.52 | – | –
15 | Cn1ccnc1COc1ccc(C(F)(F)F)cc1C(=O)/N=c1\sc(C(C)(C)C)cn1C[C@H]1CCCO1 [Example 17, N-[(2Z)-5-tert-butyl-3-[(2R)-tetrahydrofuran-2-ylmethyl]-1,3-thiazol-2(3H)-ylidene]-2-[(1-methyl-1H-imidazol-2-yl)methoxy]-5-(trifluoromethyl)benzamide] | 7.28 | 7.82 | 8.56 | < 4.57 | – | –
